Activity, IC50 and inhibition data for 1 compound are collected here from ChEMBL document CHEMBL5344425, “Discovery of 5-(Pyrimidin-2-ylamino)-1H-indole-2-carboxamide Derivatives as Nur77 Modulators with Selective and Potent Activity Against Triple-Negative Breast Cancer” (J Med Chem, 2023).

In general, pIC50 refers to the IC50 on a negative log10 scale, so that one unit is a factor of ten. As usually defined, the IC50 is the point on the concentration scale where inhibition reaches its midpoint.

For data set [1], the system named is MDA-MB-231. Description: Induction of apoptosis in human MDA-MB-231 cells transfected with Myc-Nur77 assessed as PARP cleavage at 1 to 2 uM measured after 6 hrs by western blot analysis. The data set is classed as functional, cell-based. The following applies: dose 1-2 µM.
Data set [2] concerns MDA-MB-231. Description: Induction of apoptosis in human MDA-MB-231 cells transfected with ctr siRNA assessed as early apoptotic cells at 2 uM measured after 6 hrs by AnnexinV-FITC/PI staining based flow cytometry (reference value: 1.88%). It is filed as functional. Background: A flow cytometer gives signals particle by particle.
Data set [3] has as its system MDA-MB-231. Description: Induction of apoptosis in human MDA-MB-231 cells assessed as proportion of early apoptotic cells at 1.25 uM measured after 5 hrs by AnnexinV-FITC/PI staining based flow cytometry (reference value: 3.35%). The data set is classed as functional.
For data set [4], the system named is HeLa. Description: Antiproliferative activity against human HeLa cells assessed as inhibition of cell growth measured after 24 hrs by MTT assay. It is filed as functional, cell-based. Background: Tetrazolium dyes change colour on reduction, which living cells bring about.
Data set [5] deals with MDA-MB-231. Description: Induction of apoptosis in human MDA-MB-231 cells transfected with Myc-cmv assessed as PARP cleavage at 2 to 5 uM measured after 6 hrs by western blot analysis. It is filed as functional, cell-based. The conditions noted are these: dose 2-5 µM.
The test system of data set [6] is MDA-MB-231. Description: Induction of apoptosis in human MDA-MB-231 cells assessed as increase in Tunel-488 […] at 1 uM measured after 6 hrs by confocal microscopy. It is filed as functional, cell-based.
In data set [7] the test system is HeLa. Description: Antiproliferative activity against human HeLa cells transfected with Nur77 siRNA assessed as inhibition of cell growth measured after 24 hrs by MTT assay. It is filed as functional, cell-based.
The subject of data set [8] is MDA-MB-231. As to the kind of experiment: Antitumor activity against human MDA-MB-231 cells xenografted in BALB/c mouse assessed as tumor weight at 10 mg/kg, ip qd for 16 days (reference value: 1.17 gms). The data set is classed as functional. The following applies: time 16 day. In general terms: A xenograft is tissue or cells of one species grown in another, often human tumour cells in immunodeficient mice.

The subject of data set [9] is MDA-MB-231. As to the kind of experiment: Induction of apoptosis in human MDA-MB-231 cells transfected with Myc-Nur77 R184A mutant assessed as PARP cleavage at 2 to 5 uM measured after 6 hrs by western blot analysis. The data set is classed as functional, cell-based. The conditions noted are these: dose 2-5 µM.
Data set [10] concerns MDA-MB-231. As to the kind of experiment: Induction of apoptosis in human MDA-MB-231 cells assessed as PARP cleavage at 2.5 uM pretreated with protein synthesis inhibitor, cycloheximide for 4 hrs followed by compound addition and measured after 6 hrs by western blot analysis. The data set is classed as functional, cell-based.
The subject of data set [11] is MDA-MB-231. As to the kind of experiment: Antiproliferative activity against human MDA-MB-231 cells assessed as inhibition of cell growth measured after 24 hrs by MTT assay. It is filed as functional, cell-based. The following applies: MDA-MB-231, 24 h.
Data set [12] concerns the target Nuclear receptor subfamily 4immunitygroup A member 1 (Homo sapiens, UniProt P22736). As to the kind of experiment: Induction of degradation of Myc-tagged Nur77 (unknown origin) transfected in human MDA-MB-231 cells at 2 to 5 uM measured after 6 hrs by western blot analysis. The conditions noted are these: dose 2-5 µM. The data set is classed as cell-based.
The next data set deals with T47D. As to the kind of experiment: Antiproliferative activity against human T47D cells transfected with Nur77 siRNA assessed as inhibition of cell growth measured after 24 hrs by MTT assay. The data set is classed as functional, cell-based.
The test system of another data set is HepG2. As to the kind of experiment: Antiproliferative activity against human HepG2 cells assessed as inhibition of cell growth measured after 24 hrs by MTT assay. The data set is classed as functional, cell-based. The conditions noted are these: HepG2, 24 h.
Data set [13] has as its system MDA-MB-231. As to the kind of experiment: Induction of apoptosis in human MDA-MB-231 cells transfected with Myc-Nur77 assessed as PARP cleavage at 2 to 5 uM measured after 6 hrs by western blot analysis. The data set is classed as functional, cell-based. The following applies: dose 2-5 µM.
Data set [14] has as its system MDA-MB-231. As to the kind of experiment: Induction of apoptosis in human MDA-MB-231 cells assessed as proportion of early apoptotic cells at 0.63 uM measured after 5 hrs by AnnexinV-FITC/PI staining based flow cytometry (reference value: 3.35%). It is filed as functional.
Data set [15] is described as follows: Cytotoxicity against human MCF-10A cells assessed as inhibition of cell growth measured after 24 hrs by MTT assay. It is filed as toxicity, cell-based.
Data set [16] deals with MDA-MB-231. As to the kind of experiment: Induction of apoptosis in human MDA-MB-231 cells transfected with ctr siRNA assessed as loss of mitochondrial membrane potential at 1 uM measured after 6 hrs by JC-1 staining based flow cytometry (reference value: 13.93%). The data set is classed as functional.
Data set [17] concerns the target T1, Peroxisome proliferator-activated receptor gamma (Homo sapiens) (UniProt P37231).
T1 sequence (whole entry): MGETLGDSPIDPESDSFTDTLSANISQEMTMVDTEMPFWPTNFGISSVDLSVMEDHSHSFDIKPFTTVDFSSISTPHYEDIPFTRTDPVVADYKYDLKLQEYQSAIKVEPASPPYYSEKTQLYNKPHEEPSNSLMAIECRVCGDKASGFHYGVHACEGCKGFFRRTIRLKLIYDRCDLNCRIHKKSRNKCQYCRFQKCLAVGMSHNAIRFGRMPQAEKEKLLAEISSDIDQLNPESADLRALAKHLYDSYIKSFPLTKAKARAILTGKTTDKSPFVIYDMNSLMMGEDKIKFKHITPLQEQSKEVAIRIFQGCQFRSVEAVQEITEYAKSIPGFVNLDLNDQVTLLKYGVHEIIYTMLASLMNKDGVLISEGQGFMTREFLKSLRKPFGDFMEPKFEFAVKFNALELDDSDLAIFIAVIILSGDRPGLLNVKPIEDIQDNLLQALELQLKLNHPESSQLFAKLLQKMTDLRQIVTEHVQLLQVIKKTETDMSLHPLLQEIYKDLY
Description: Antagonist activity at PPARgamma ligand binding domain (unknown origin) transfected in HEK293T cells cotransfected with pG5-Luc assessed as inhibition of receptor transcriptional activity at 2 uM measured after 12 hrs by luciferase reporter gene assay. It is filed as cell-based.

Data set [18] deals with MDA-MB-231. As to the kind of experiment: Induction of apoptosis in human MDA-MB-231 cells assessed as PARP cleavage at 2.5 uM pretreated with mTOR inhibitor, rapamycin for 4 hrs followed by compound addition and measured after 6 hrs by western blot analysis. It is filed as functional, cell-based.
The test system of data set [19] is MDA-MB-231. Description: Antitumor activity against human MDA-MB-231 cells xenografted in BALB/c mouse assessed as increase in cleaved caspase-3 expression in tumor at 10 mg/kg, ip qd for 16 days by immunohistochemical staining based analysis. It is filed as functional, organism-based. The conditions noted are these: time 16.0 day.

pIC50: −log10 of the molar value. Calls of active or inactive are those of the source. The rule behind the calls is not given here.

Nuclear receptor subfamily 4immunitygroup A member 1, sequence (P22736 whole entry): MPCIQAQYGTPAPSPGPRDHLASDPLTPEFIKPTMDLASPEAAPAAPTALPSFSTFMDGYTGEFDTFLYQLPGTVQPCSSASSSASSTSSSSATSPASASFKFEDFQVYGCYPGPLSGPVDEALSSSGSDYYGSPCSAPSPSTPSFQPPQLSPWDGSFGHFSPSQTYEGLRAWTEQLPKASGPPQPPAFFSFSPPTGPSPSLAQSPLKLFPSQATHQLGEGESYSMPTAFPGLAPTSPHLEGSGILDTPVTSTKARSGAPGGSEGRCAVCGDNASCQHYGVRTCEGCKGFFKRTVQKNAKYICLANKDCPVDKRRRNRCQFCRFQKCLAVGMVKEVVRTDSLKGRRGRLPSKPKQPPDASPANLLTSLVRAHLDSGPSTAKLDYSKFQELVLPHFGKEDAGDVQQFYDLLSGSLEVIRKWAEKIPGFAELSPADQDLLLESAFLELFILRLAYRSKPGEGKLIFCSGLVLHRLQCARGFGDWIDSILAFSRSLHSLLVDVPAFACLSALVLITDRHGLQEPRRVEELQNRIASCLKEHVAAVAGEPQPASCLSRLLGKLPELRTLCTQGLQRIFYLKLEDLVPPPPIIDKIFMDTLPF

For the compound `CCN(CC)CCCNC(=O)c1cc2cc(Nc3nccc(-c4sc(NC)nc4C)n3)ccc2[nH]1`, the result (in the data set on MDA-MB-231 [1]; with MDA-MB-231 [5]; in the data set on MDA-MB-231 [6]; in the data set with MDA-MB-231 [10]; in data set [12]; with MDA-MB-231 [13]) was Active. The outcome in the data set with MDA-MB-231 [18] and in the data set on MDA-MB-231 [19] was Active. Further, the Activity amounted to 19.23% in the data set with MDA-MB-231 [2]; 35.95% in the data set on MDA-MB-231 [3]; 0.06 g with MDA-MB-231 [8]; 20.22% with MDA-MB-231 [14]; 35.26% in the data set with MDA-MB-231 [16]. The pIC50 is 5.70 with HeLa [4]; 5.04 in the data set with HeLa [7]; 6.40 with MDA-MB-231 [11]; 5.20 with T47D; 4.27 in the data set with HepG2. Besides, the result in the data set on MDA-MB-231 [9] was inactive. In addition, the IC50 at 24 h in data set [15] is 48 µM. Besides, the inhibition entry in data set [17] is “inactive”.
